Laboratory results reported in patent US10351522B2, “Sulfonamide derivative and pharmaceutically acceptable acid addition salt thereof” (UNIVERSITY OF TSUKUBA, priority 2015, dated 2019).
Like-named read-outs stand apart in the source and are kept apart here.

Key:
[1] = biological target: T1, human OX1R (Homo sapiens, UniProt O43613); test: Agonist activity against OX1R: intracellular calcium (Fura-2AM, FDSS7000) in CHOOX1R cells; assay type: cell-based; settings: for Emax at 0.1 µM / Emax at 1 µM / Emax at 10 µM: read-out: Response (%) OX1R
T1 construct: expressed in transfected cells; host or cells: CHO (Chinese hamster ovary) cells, line CHOOX1R, co-expressing NFAT-luciferase
T1 sequence (O43613 1-425): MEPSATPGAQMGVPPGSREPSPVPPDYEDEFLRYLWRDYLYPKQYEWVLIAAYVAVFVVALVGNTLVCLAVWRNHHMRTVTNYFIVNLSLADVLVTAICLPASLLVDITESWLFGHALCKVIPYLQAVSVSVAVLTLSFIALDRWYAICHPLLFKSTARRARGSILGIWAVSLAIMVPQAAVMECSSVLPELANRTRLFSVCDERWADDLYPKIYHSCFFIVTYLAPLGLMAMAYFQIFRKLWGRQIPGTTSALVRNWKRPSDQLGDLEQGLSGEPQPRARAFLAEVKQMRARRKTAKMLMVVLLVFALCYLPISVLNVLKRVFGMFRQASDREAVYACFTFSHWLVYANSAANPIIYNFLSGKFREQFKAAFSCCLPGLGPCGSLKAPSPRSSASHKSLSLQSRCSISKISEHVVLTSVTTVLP
Outline: (§1)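 CHO cells stably expressing human OX1R or OX2R (plus NFAT-luciferase) were loaded with 5 μM Fura-2AM for 60 min, then given compound at 10^−7 to 10^−5 M final (1% DMSO). Calcium change read as 340/380 nm excitation fluorescence ratio; response expressed as % of orexin-A maximal activity at 10, 1.0 and 0.1 μM.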

[2] = biological target: T2, human OX2R (Homo sapiens, UniProt O43614); test: Agonist activity against OX2R: intracellular calcium (Fura-2AM, FDSS7000) in CHOOX2R cells; assay type: cell-based; settings: relative to orexin-A as full agonist (100%)
T2 construct: expressed in transfected cells; host or cells: CHO (Chinese hamster ovary) cells, line CHOOX2R, co-expressing NFAT-luciferase
T2 sequence (O43614 1-444): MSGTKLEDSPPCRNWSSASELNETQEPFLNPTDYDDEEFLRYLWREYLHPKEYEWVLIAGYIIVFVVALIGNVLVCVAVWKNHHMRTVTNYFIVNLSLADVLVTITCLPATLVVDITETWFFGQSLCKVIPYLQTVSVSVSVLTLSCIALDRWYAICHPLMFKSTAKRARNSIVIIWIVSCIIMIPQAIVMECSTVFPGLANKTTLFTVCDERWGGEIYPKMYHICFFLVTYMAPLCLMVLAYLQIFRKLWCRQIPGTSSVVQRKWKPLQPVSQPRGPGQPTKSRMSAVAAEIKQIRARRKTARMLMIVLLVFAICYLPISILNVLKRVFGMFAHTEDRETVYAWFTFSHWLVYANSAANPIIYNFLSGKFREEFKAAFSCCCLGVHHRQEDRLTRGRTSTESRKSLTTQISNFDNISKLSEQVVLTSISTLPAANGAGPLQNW
Outline: as §1

[3] = test compound 0.1 μM, relative to orexin-A as full agonist (100%)
[4] = test compound 1.0 μM, relative to orexin-A as full agonist (100%)
[5] = test compound 10 μM, relative to orexin-A as full agonist (100%)
[6] = 0.1 μM test compound, relative to orexin-A as full agonist (100%)
[7] = 1.0 μM test compound, relative to orexin-A as full agonist (100%)
[8] = 10 μM test compound, relative to orexin-A as full agonist (100%)

Compound | Response (%) OX2R ([2]; test compound 0.1 μM) [%] | Response (%) OX2R ([2]; test compound 1.0 μM) [%] | Response (%) OX2R ([2]; test compound 10 μM) [%] | Response (%) OX1R [1, 6] [%] | Response (%) OX1R [1, 7] [%] | Response (%) OX1R [1, 8] [%] | Response (%) OX2R ([2]; 0.1 μM test compound) [%] | Response (%) OX2R ([2]; 1.0 μM test compound) [%] | Response (%) OX2R ([2]; 10 μM test compound) [%] | also measured
COc1ccc(-c2cccc(C(=O)N(C)C)c2)cc1S(=O)(=O)Nc1cccc(N2CCN(c3ccccc3)C2=O)c1 [Example 128, 4′-methoxy-N,N-dimethyl-3′-(N-(3-(2-oxo-3-phenylimidazolidin-1-yl)phenyl)sulfamoyl)-[1,1′-biphenyl]-3-carboxamide] | 10 | 77 | 105 |  |  |  |  |  |  | Emax at 0.1 µM [1]: < 5%; Emax at 1 µM [1]: < 5%; Emax at 10 µM [1]: 6%
COc1ccc(-c2cccc(C(=O)N(C)C)c2)cc1S(=O)(=O)Nc1cccc(NC(=O)OC(C)(C)C)c1 [Example 74] |  |  |  | 6 | 7 | 7 | 15 | 13 | 64 | 
COc1ccc(-c2cccc(C(=O)N(C)C)c2)cc1S(=O)(=O)Nc1cccc(NC(=S)Nc2ccccc2)c1 [Example 75, 4′-methoxy-N,N-dimethyl-3′-(N-(3-(3-phenylthioureido)phenyl)sulfamoyl)-[1,1′-biphenyl]-3-carboxamide] |  |  |  |  |  |  | 61 | 94 | 95 | Emax at 0.1 µM [1, 6]: < 5%; Emax at 1 µM [1, 7]: < 5%; Emax at 10 µM [1, 8]: 30%
COc1ccc(-c2cccc(C(=O)N(C)C)c2)cc1S(=O)(=O)Nc1cccc(NC(=O)c2ccccc2)c1 [Example 1, 3′-(N-(3-benzamidophenyl)sulfamoyl)-4′-methoxy-N,N-dimethyl-[1,1′-biphenyl]-3-carboxamide] |  |  |  |  |  |  | <5 | 6 | 67 | Emax at 0.1 µM [1, 6]: < 5%; Emax at 1 µM [1, 7]: < 5%; Emax at 10 µM [1, 8]: < 5%
COc1ccc(-c2cccc(C(=O)N(C)C)c2)cc1S(=O)(=O)Nc1cccc(NC(=O)C[S+]([O-])C(c2ccccc2)c2ccccc2)c1 (stereo not drawn) [Example 13] |  |  |  | <5 | 63 | 107 | 11 | 117 | 109 | 
COc1ccc(-c2cccc(C(=O)N(C)C)c2)cc1S(=O)(=O)Nc1cccc(NS(C)(=O)=O)c1 [Example 89] | 7 | 8 | 31 |  |  |  |  |  |  | Response (%) OX1R [1, 3]: <5%; Response (%) OX1R [1, 4]: <5%; Response (%) OX1R [1, 5]: <5%
COc1ccc(-c2cccc(C(=O)N(C)C)c2)cc1S(=O)(=O)Nc1cccc(Nc2c(Nc3cccc(C)c3)c(=O)c2=O)c1 [Example 80, 3′-(N-(3-((3,4-dioxo-2-(m-tolylamino)cyclobut-1-en-1-yl)amino)phenyl)sulfamoyl)-4′-methoxy-N,N-dimethyl-[1,1′-biphenyl]-3-carboxamide] |  |  |  |  |  |  | <5 | <5 | 23 | Emax at 0.1 µM [1, 6]: < 5%; Emax at 1 µM [1, 7]: < 5%; Emax at 10 µM [1, 8]: < 5%
COc1ccc(-c2cccc(C(=O)N(C)C)c2)cc1S(=O)(=O)Nc1cccc(NC(=O)Nc2cccc([N+](=O)[O-])c2)c1 [Example 57] |  |  |  | <5 | <5 | <5 | 91 | 92 | 60 | 
COc1cccc(S(=O)(=O)Nc2cccc(NS(=O)(=O)c3cc(-c4cccc(C(=O)N(C)C)c4)ccc3OC)c2)c1 [Example 85, 4′-methoxy-3′-(N-(3-(3-methoxyphenylsulfonamido)phenyl)sulfamoyl)-N,N-dimethyl-[1,1′-biphenyl]-3-carboxamide] | <5 | <5 | 12 |  |  |  |  |  |  | Emax at 0.1 µM [1, 3]: < 5%; Emax at 1 µM [1, 4]: < 5%; Emax at 10 µM [1, 5]: < 5%
COc1ccc(-c2cccc(C(=O)N(C)C)c2)cc1S(=O)(=O)Nc1cccc(NC(=O)Nc2ccc(N)cc2)c1 [Example 55] |  |  |  | <5 | <5 | <5 | <5 | 54 | 105 | 
COc1ccc(-c2cccc(C(=O)N(C)C)c2)cc1S(=O)(=O)Nc1cccc(NC(=O)/C=C/c2ccoc2)c1 [Example 14] |  |  |  | <5 | <5 | <5 | <5 | 18 | 74 | 

Further lines, with some results ahead:

Response (%) OX2R ([2]; test compound 0.1 μM) [%] | Response (%) OX2R ([2]; test compound 1.0 μM) [%] | Response (%) OX2R ([2]; test compound 10 μM) [%] | Response (%) OX1R [1, 6] [%] | Response (%) OX1R [1, 7] [%] | Response (%) OX1R [1, 8] [%] | Response (%) OX2R ([2]; 0.1 μM test compound) [%] | Response (%) OX2R ([2]; 1.0 μM test compound) [%] | Response (%) OX2R ([2]; 10 μM test compound) [%] | Compound | also measured
25 | 84 | 108 |  |  |  |  |  |  | COc1ccc(-c2cccc(C(=O)N(C)C)c2)cc1S(=O)(=O)Nc1cccc(/N=N/c2ccc(N(C)C)cc2CO)c1 [Example 97, (E)-3′-(N-(3-((4-(dimethylamino)-2-(hydroxymethyl)phenyl)diazenyl)phenyl)sulfamoyl)-4′-methoxy-N,N-dimethyl-[1,1-biphenyl]-3-carboxamide] | Emax at 0.1 µM [1, 3]: < 5%; Emax at 1 µM [1, 4]: < 5%; Emax at 10 µM [1, 5]: 11%
<5 | <5 | 46 |  |  |  |  |  |  | C=CC(=O)NCCN(C(=O)C=C)c1cccc(NS(=O)(=O)c2cc(-c3cccc(C(=O)N(C)C)c3)ccc2OC)c1 [Example 94, 3′-(N-(3-(N-(2-acrylamidoethyl)acrylamido)phenyl)sulfamoyl)-4′-methoxy-N,N-dimethyl-[1,1′-biphenyl]-3-carboxamide] | Emax at 0.1 µM [1, 3]: < 5%; Emax at 1 µM [1, 4]: < 5%; Emax at 10 µM [1, 5]: < 5%
144 | 97 | 94 |  |  |  |  |  |  | COc1ccc(-c2cccc(C(=O)N(C)C)c2)cc1S(=O)(=O)Nc1cccc(N2CCCCN(c3cccc(N(C)C)c3)C2=O)c1 [Example 136] | Response (%) OX1R [1, 3]: <5%; Response (%) OX1R [1, 4]: 78%; Response (%) OX1R [1, 5]: 110%
<5 | 6 | 73 |  |  |  |  |  |  | CCN(Cc1cccnc1)C(=O)c1ccc(OC)c(S(=O)(=O)Nc2cccc(NC(=O)Nc3ccccc3N(C)C)c2)c1 [Example 113] | Response (%) OX1R [1, 3]: <5%; Response (%) OX1R [1, 4]: <5%; Response (%) OX1R [1, 5]: <5%
16 | 77 | 85 |  |  |  |  |  |  | COc1ccc(-c2cccc(C(=O)N(C)C)c2)cc1S(=O)(=O)Nc1cccc(N2CCN(C(=O)c3cccc(C)c3)C2)c1 [Example 93, 4′-methoxy-N,N-dimethyl-3′-(N-(3-(3-(3-methylbenzoyl)imidazolidin-1-yl)phenyl)sulfamoyl)-[1,1′-biphenyl]-3-carboxamide] | Emax at 0.1 µM [1, 3]: 10%; Emax at 1 µM [1, 4]: 9%; Emax at 10 µM [1, 5]: 20%
